Common to all, as to assay type: cell-based, human
For assay [1], the system named is HER2 mRNA. Nature of the assay: Northern blot of HER2 transcript levels. The following applies: SKBR3 cells, TSA 1 μM, 6 h. On the procedure:
(§1) Previous studies have shown that pan-inhibitors of class I and II histone deacetylases, like TSA, can rapidly destabilize a number of oncogenic transcripts including HER2 in a cycloheximide-dependent manner (FIG. 9). […] Thus, SKBR3 cells were treated with TSA to evaluate polysome protein acetylation and determine if, similar to RPL24 depletion, histone deacetylase inhibition can affect ribosome assembly dynamics. To detect early (2 h) ribosome or polysome acetylation following histone deacetylase inhibition treatment (1 μM TSA), SKBR3 polysomes were isolated using a discontinuous sucrose gradient as previously described. […] Mass spectrometry studies indicate that 15 ribosomal proteins, 11 large subunit proteins (RPL24 included) and 4 small subunit proteins, underwent at least a two-fold induction in acetylation following 2 h or 6 h TSA treatment (1 μM) (FIG. 4b, FIG. 10a-q).
Cells are harvested and RNA is extracted using Trizol (Life Technologies) per manufacturer's protocol. Northern blots are performed as previously described. Briefly, RNA is then electrophoresed into 1% agarose-formaldehyde gels and transferred onto PVDF membranes. Membranes are then hybridized with ^32P-labelled cDNA probes for HER2 or GAPDH, washed, and visualized by autoradiography.
SKBR3 cells were treated with TSA (1 μM, 6 h) and/or cycloheximide (CX, 50 μg/ml, 6 h) or with the respective vehicle controls. […]

The test system of assay [2] is tubulin. Nature of the assay: Western blot for tubulin acetylation in SKBR3 cells. The following applies: western blot (FIG. 4c,d). From the text: (§2) Like TSA, the HDAC6 (class IIb)-selective inhibitors, Tubacin and Compound 101, as well as HDAC6 siRNA, all induce tubulin acetylation as expected as well as ribosomal protein acetylation, including the band that co-migrates with RPL24 (FIG. 4c,d, indicated by arrows). […] Thus, the tubulin acetylating effects of pan-histone deacetylase inhibition, known to be mediated by inhibition or knockdown of HDAC6, correspond to the observed ribosome and RPL24 acetylation responses induced by TSA.
(§3) Cells are lysed in RIPA buffer (10 mM Tris-HCL (pH 8.0), 1 mM EDTA, 0.5 mM EGTA, 1% triton X-100, 0.1% sodium deoxycholate, 0.1% SDS, 140 mM NaCl, 20 mM NaF, Complete EDTA-free protease inhibitor tablets (Roche Diagnostics Corp., Basel, Switzerland) and the phosphatase inhibitor cocktail PhosSTOP (Roche)), the latter two as indicated by the manufacturer's protocol. Equal amounts of protein are diluted in 2× sample buffer. Immunoblots on PVDF (Polyvinyldene Fluoride) membranes are blocked with nonfat milk in tris-buffered saline with 0.05% tween-20 (TBST). The following antibodies are incubated with membranes in 5% nonfat milk in TBST: RPL24 (Proteintech, Chicago, Ill.), Cyclin D1, Rack1, RPL4 (Santa Cruz Biotechnology, Santa Cruz, Calif.), NBS1, GAPDH (EMD Millipore Corporation, Chicago, Ill.), Survivin, β-tubulin, acetyl-lysine, eIF6, acetyl-H2B, H2B, (Cell Signaling Technology, Boston, Mass.), acetyl-tubulin, tubulin (Sigma Aldrich (St. Louis, Mo.))
FIG. 4: Ribosomal protein acetylation is induced by histone deacetylase inhibition. (a-c) SKBR3 cells were treated with the indicated drugs for the indicated period of time. (d) SKBR3 cells were transfected with the indicated siRNAs and allowed to incubate for 72 hours. (a, c, d). The indicated western blots were performed in ribopellets, total cytoplasmic lysates, or nuclear extracts. (b) Mass spectrometry was performed on ribopellets as described in materials and methods and in FIG. 6. The fold change in acetylated peptide to total peptide case by TSA treatment is plotted. Only proteins that underwent at least a two-fold induction upon TSA treatment are shown. Error bars represent the standard error of the mean for three biological replicates.
On the technique in general: A western blot detects proteins with antibodies after separation by electrophoresis.

For assay [3], the system named is ribosomal protein. Nature of the assay: Acetyl-lysine western blot of ribopellets (ribosomal protein acetylation). To be noted: SKBR3 cells. The method, then:
as §1, §2, §3
Cells, plated at […] confluency, are treated as indicated. After treatment, cells are treated with 50 μg/ml cycloheximide for 15 minutes. Cells are lysed with a buffer containing 10 mM HEPES, 10 mM KCl, 75 mM NaCl, 10 mM MgCl2, 0.35% NP40, pH 7.9 supplemented with Complete EDTA-free protease inhibitor tablets, PhosSTOP phosphatase inhibitor tablets (Roche) per manufacturer's instructions, 50 μg/ml cycloheximide, SUPERase RNase inhibitors (Life Technologies) per manufacturer's instructions, 15 μM TSA, and 5 mM nicotinimide to inhibit histone deacetylases. Supernatants are collected as cytoplasmic preparations. Where indicated, pellets containing nuclei are resuspended in RIPA buffer (described above). The suspension is spun at 13,000 rpm for 5 min and supernatants are collected as nuclear preparations.
Ribosomes are subsequently isolated from cytoplasmic preparations as described previously. Briefly, lysates are layered on top of a 12% and 33% discontinuous sucrose gradient and spun at 38,000 rpm for 2 h. The resulting polysome pellet is then resuspended, stripped of RNA with acetic acid, and then pelleted with acetone. The pellet is then resuspended in 8 M urea, 2% CHAPS, and 25 mM dithiothreitol (DTT).
FIG. 4: Ribosomal protein acetylation is induced by histone deacetylase inhibition. (a-c) SKBR3 cells were treated with the indicated drugs for the indicated period of time. (d) SKBR3 cells were transfected with the indicated siRNAs and allowed to incubate for 72 hours. (a, c, d). The indicated western blots were performed in ribopellets, total cytoplasmic lysates, or nuclear extracts. […]

In the case of `CC(/C=C/C(=O)NO)=C\[C@@H](C)C(=O)c1ccc(N(C)C)cc1` [TSA, trichostatin-A], in assay [1], the “HER2 mRNA decay” value is on record as “TSA-induced HER2 mRNA decay”. Besides, in assay [2], the tubulin acetylation entry is reported as “induce”. Also, in assay [3] (1 μM TSA, 2 h, western blot), the “acetyl-lysine protein bands in polysomes, including band co-migrating with RPL24” value is given as “several TSA-induced bands” and the “total RPL24 levels” value is given as “not altered”. Also, the “ribosomal protein acetylation, including the band that co-migrates with RPL24” value in assay [3] (western blot of ribopellets (FIG. 4c,d)) is recorded as “induce”.
